According to a melting point compilation (Tetko et al.; mined from patent text by program, amines drawn as free bases though some values may be those of a salt):

Row | SMILES | melting point [°C]
1 | COc1ccc(NS(=O)(=O)c2cccc3ccccc23)cc1OCCc1ccc2ccccc2c1 | 127 to 131
2 | COc1cc(OC)c2c(=O)[nH]c(-c3ccc(OCC[N+]4([O-])CCCC4)c(-c4ccc(S(C)(=O)=O)cc4)n3)nc2c1 | 167 to 170
3 | COc1ccc(C(=O)CC(=O)Nc2ccc(C)cc2)cc1 | 122 to 126
4 | CCCCOC1OC(CO)C(O)(N(CC)C(=O)N(CCCl)N=O)C(O)C1O (stereo not given) | 75 to 77
5 | CC(C)Cc1ccc(C(C)C(=O)NCCCCn2cnc3c(N)nc4ccccc4c32)cc1 (stereo not given) | 172 to 173
6 | O=C(O)c1ccc(CN(C2CCCCC2O)S(=O)(=O)c2ccc(Cl)cc2)cc1 (stereo not given) | 218 to 219
7 | C[C@@H]1C(=O)c2ccccc2O[C@H]1c1ccccc1 (relative stereo) | 99 to 100
8 | COc1ccc(-c2ncc(C(=O)O)s2)cc1OC1CCCC1 | 170 to 171
9 | COCc1cc(O)nc2nc(N)ccc12 | > 290
10 | CC1(C(=O)c2c[nH]c3ncc(-c4ccc(N5CCCCC5)cc4)nc23)CCCCC1 | 234 to 236
11 | Cc1oc(-c2ccccc2)nc1CCc1noc(COc2ccccc2CC(=O)O)n1 | 120 to 121
12 | CC(C)(C)OC(=O)CN(C(=O)CN(C(=O)CN1C(=O)c2ccccc2C1=O)c1ccccc1)c1ccccc1 | 80
13 | O=S(=O)(CC=Cc1ccccc1)CCCO | 86
14 | CCOC=Nc1c(S(C)=O)c(C#N)nn1-c1c(Cl)cc(C(F)(F)F)cc1Cl (stereo not given) | 93 to 95
15 | CC(C)S(=O)c1cnc(Cl)c(Cl)c1 (stereo not given) | 62 to 64
16 | CCCCc1ccc(CCCCSCc2cccc(/C=C/c3cccc(NC(=O)CC(CC)(CC)C(=O)O)c3)n2)cc1 | 150 to 151
17 | COc1cc2cc(CO)c(CO)c(-c3ccncc3)c2cc1OC | 118 to 120
18 | CC(=O)c1cc(Br)cc(Cc2cc(Cl)cc(Cc3cc(Br)ccc3O)c2O)c1O | 185 to 186
19 | CCN(CC)c1ccc2c(c1)C[C@@H]1c3ccccc3N[C@H]21 (relative stereo) | 116 to 118
20 | CC(=O)OCC1OC(N)C(OC(C)=O)C(OC(C)=O)C1OC(C)=O (stereo not given) | 145 to 147
21 | CC(C)(C(N)=O)c1ccc(OCc2ccccc2)cc1 | 150 to 151
22 | Cc1ccn2c(C)c(CCc3ccc4nc(N)oc4c3)nc2c1 | 244 to 246
23 | CCNC(=O)N1c2ccccc2CCC1CN1CCN(c2cccc3[nH]ccc23)CC1 (stereo not given) | 109 to 112
24 | CCC(C)(C)N=NC(C)(C#N)CCC(=O)O (stereo not given) | 60 to 62
25 | CC(=O)N(C(C)=O)c1cc2c(cc1C)N(C(C)=O)c1ccc(N(C)C)cc1N2C(C)=O | 231 to 234

Row | SMILES | melting point [°C]
26 | CCCCCCCCCCCCCCOc1ccc(COC(=O)Oc2ccccc2)cc1 | 34 to 35
27 | CC1CC2=CC(=O)CCC2C2CCC3(C)C(C=O)CCC3C12 (stereo not given) | 207 to 230
28 | Cc1ccc(S(=O)(=O)Cc2ccc(C(C)(C)N)cc2)cc1C | 129 to 130
29 | CN1CCC(OC2c3ccccc3CCn3c2nc(-c2ccccc2)c3I)CC1 (stereo not given) | 153
30 | Cc1nn(CCO)c(C)c1Oc1cc(Cl)cc(Cl)c1 | 114 to 115
31 | Cc1ccc2c(NCc3ccc(NC(=O)C4CCN(Cc5ccccc5)CC4)cc3)nc(N3CCCCCC3)nc2c1 | 66
32 | CCCCCCCCCCCCc1nnc(C(C(=O)Nc2c(C(C)C)cccc2C(C)C)c2ccccc2)o1 (stereo not given) | 82 to 84
33 | CC(C)(C)c1cc(I)c2c(c1)C=NS(=O)(=O)O2 | 130 to 134
34 | C[C@@H](O)c1cc2ccoc2cn1 | 59.5 to 60.5
35 | Cn1ncc(C(=O)N2CCOCC2)c1C(=O)Nc1ccn2nc(-c3cccnc3F)nc2c1 | 267 to 269
36 | COC(=O)c1cc(Oc2cccnc2)c(C(F)(F)F)cc1[N+](=O)[O-] | 98 to 100
37 | CC(C(=O)O)n1cc(-c2ccc(Oc3ccccc3)cc2)c2c(N)ncnc21 (stereo not given) | 240 to 241
38 | Cc1ccc([N+](=O)[O-])c(NC=C2C(=O)OC(C)(C)OC2=O)c1 | 218 to 220
39 | CC(=O)Nc1c(Cl)cnn(C)c1=O | 147 to 148
40 | CCc1nc2c(N)nc3ccccc3c2n1CCCC#Cc1cccc(C(F)(F)F)c1 | 178 to 181
41 | O=C1C(=Cc2cc(Br)cs2)CCc2cc(OCCn3ccnc3)ccc21 | 164 to 166
42 | COc1cc2ccccc2c(Br)c1O | 100 to 101
43 | c1ccc2c(c1)ncc1nc(C3CCCCC3)[nH]c12 | 205 to 206
44 | CC1=C(C(=O)c2ccc(Br)cc2)C(=O)C2C(O)=CC=CC2C1=O (stereo not given) | 161 to 162
45 | N#Cc1ccc(Oc2ccc(S(=O)(=O)NCc3ccc4ccccc4n3)cc2)c(Cl)c1 | 83 to 86
46 | O=C(CNc1ccccc1)Nc1c(Cl)cccc1C(=O)O | 184 to 185
47 | Cc1c(F)c(N)cc([N+](=O)[O-])c1F | 106 to 107
48 | O=C(O)c1cccc(CSCCNC(=O)c2c(Cl)cccc2Cl)c1 | 165 to 166
49 | O=C(O)C(=NOCc1ccc(Cl)cc1Cl)c1csc(NC(=O)C(F)(F)F)n1 | 170 to 176
50 | O=C(O)c1cnc2cc(I)ccc2n1 | 242 to 244

Row | SMILES | melting point [°C]
51 | O=C(CI)Nc1ccc(C(=O)O)cc1 | 194 to 196
52 | CC(=O)OC1CC(C)(C)N(OC(C)=O)C(C)(C)C1 | 72 to 73
53 | CNC(=O)c1cc2c(nc(C)n2C)c2c1C[C@@H](O)[C@@H](c1ccccc1)N2 | 265 to 268
54 | C=CCCOc1ccc(C[C@H](NC(=O)OC(C)(C)C)C(=O)O)cc1 | 148 to 150
55 | N#Cc1ccc(Nc2cccc(I)c2)c([N+](=O)[O-])c1 | 211 to 212
56 | CCOc1nc2ccccc2nc1N(C)C(=O)N1CCN(c2cc(Cl)cc(Cl)c2)CC1 | 129 to 131
57 | CC(=O)N1C(=O)C2(COc3cc4c(cc32)OCCO4)c2ccccc21 (stereo not given) | 236 to 238
58 | CCCCCCCCCC(=O)c1ccc(Br)cc1F | 31 to 32
59 | COc1cc(C=CC(CSc2ccccc2)=NO)ccc1O | 90 to 100
60 | CC(C)(C)OC(=O)NCCOCCOCCNC(=O)CCCCC1SCC2NC(=O)NC21 (stereo not given) | 106 to 108
61 | CC(C)(C)OC(=O)NC1CCCOCC=CC2CC2(C(=O)NS(=O)(=O)C2CC2)NC(=O)C2CC(OC(=O)NCC3CCCCC3)CN2C1=O (stereo not given) | 142 to 144
62 | COc1ccc(-c2ccc(Br)c3ccsc23)cc1 | 103 to 104
63 | CCOC(=O)c1cnn(-c2c(F)c(F)c(C(F)(F)F)c(F)c2F)c1N | 166 to 168
64 | CCCCc1nc2sccc2c(=O)n1CCC | 70 to 72
65 | COc1cc(-c2ccc(O)cc2)ccc1C=O | 159 to 161
66 | CN(C)Cc1coc(-c2cccc(C3=Nc4ccc(-n5cccc5)cc4NC(=O)C3)c2)n1 | 172 to 175
67 | CC(=O)Nc1nc(NCC(O)CO)c(Cl)nc1[N+](=O)[O-] (stereo not given) | 130 to 131
68 | NS(=O)(=O)c1ccc2c(c1)C(=O)C1(CCOC1=O)S2 (stereo not given) | 199 to 201
69 | O=S(=O)(Nc1ccc(Cl)nc1I)c1ccc2ncsc2c1 | 191
70 | Cc1cn(C(C)(C)C(=O)N(C)C)nc1-c1ccccc1Cl | 175 to 176
71 | COC(=O)c1cc(C(=O)OC)c(O)c([N+](=O)[O-])c1 | 74 to 76
72 | CCCCCc1ccc(OCC(=O)O)c(CCCCC)c1 | 115 to 120
73 | CCOC(=O)CCc1cn(-c2ccc(N)cn2)nc1C(C)C | 75 to 76
74 | CN(CC1CCc2c(cccc2OCC(=O)O)C1)c1cnc(-c2ccccc2)c(-c2ccccc2)n1 (stereo not given) | 212 to 213
75 | CCOCCNC(=O)c1cc(C(=O)OC)c(O)c2ncc(Cc3ccc(F)cc3)cc12 | 174 to 175

Row | SMILES | melting point [°C]
76 | O=C(O)C1CCC(c2ccc(Cl)cc2)n2c(=O)n(CCS)c(=O)n21 (stereo not given) | 189 to 190
77 | CN(C)C1CCc2[nH]c3ccc(O)cc3c2C1 (stereo not given) | 202 to 204
78 | O=C(O)c1ccc(C=CC=CC(=O)c2ccccc2)cc1 | 210 to 214
79 | Cc1ccc(-c2[nH]c(-c3c(C)cc(C)cc3C)nc2-c2ccncc2)cc1 | 277 to 279
80 | COc1ccc(CCN(C)CCCc2ccc(NC(=O)c3cccc4c(=O)c5ccccc5[nH]c34)cc2)cc1OC | 114
81 | COc1cc(N)ccc1-c1cnc(C)s1 | 125 to 129
82 | COc1cc(N2CCN(C)CC2)ccc1-c1cnn2c(N)c(-c3cccc(Cl)c3)c(C)nc12 | 174 to 178
83 | CC(C)(C)OC(=O)NC1N=C(c2ccccc2F)c2ccccc2N(CCO)C1=O (racemic) | 200
84 | COc1ccc2[nH]c(C(=O)C34CC5CC(CC(C5)C3)C4)cc2c1 | 229 to 231
85 | COc1cc(C(=O)Nc2c(Cl)cncc2Cl)ccc1OC(F)F | 170
86 | C=CC(=O)N1c2ccccc2CC1C(=O)O (stereo not given) | 158 to 160
87 | O=C(c1ccc(F)cc1)c1ccc(Br)nc1 | 97 to 98
88 | CCOC(=O)COc1cc(OCC=C(C)C)ccc1C(=O)C=Cc1ccc(C(C)(C)C)cc1 | 78 to 79
89 | CN(C)c1ccc(-c2ccnc(Nc3ccc4c(c3)OCCO4)c2)cc1 | 154 to 156
90 | COc1ccc(OCC2CO2)c(C(=O)Nc2cccc3[nH]ccc23)c1 (stereo not given) | 122
91 | CCOC(=O)n1c(C)c(Cc2ccc(Cl)cc2Cl)c2nc(C#N)ccc21 | 112 to 113
92 | Cc1ccc([C@H](CC(=O)O)NC(=O)Nc2c(O)c3ccccc3n(Cc3ccccc3Cl)c2=O)cc1 | 134 to 136
93 | CON=C1CN(c2c(F)c(N)c3c(=O)c(C(=O)O)cn(C4CC4)c3c2F)CC12CN(C(=O)OC(C)(C)C)C2 | 256 to 257
94 | O=[N+]([O-])c1ccc(S(=O)(=O)n2c3cc(O)c(O)cc3c3ccc(O)c(O)c32)cc1 | 233 to 234
95 | CC(=O)c1ccc(Nc2nc(N)c(C(=O)c3sccc3C)s2)cc1 | 171 to 172
96 | Fc1ccc2c(C3=CCN(CCC4OCCc5cc(Br)ccc54)CC3)c[nH]c2c1 (stereo not given) | 184 to 186
97 | CN(C(=O)c1cccc(S(=O)(=O)N(C)c2ccc(Br)cc2)c1)c1ccc(Br)cc1F | 136 to 137
98 | CC(COc1cccc(Oc2ccccc2)c1)OS(N)(=O)=O (stereo not given) | 81 to 84
99 | CC(C)CCNCCOc1ccc2ccccc2c1 | 91
100 | CCCCCN1C(=O)C(NC(=O)c2ccc(Cl)c(Cl)c2)c2ccccc21 (stereo not given) | 125 to 126
